Experimental data as given in the NIST ThermoML archive (doi:10.1016/j.jct.2015.02.001).
Where “and” joins values, the source holds several entries; their conditions need not be identical. Identical values can stand only once. Numbers after ± are expanded uncertainties.

Settings: Liquid, Transpiration method

COc1ccc(C)cc1 [1-methoxy-4-methylbenzene]
Settings | vapor or sublimation pressure
275.2 K | 0.0275 ± 0.0018 kPa
276.4 K | 0.031 ± 0.002 kPa
277.2 K | 0.0326 ± 0.0021 kPa
278.8 K | 0.0379 ± 0.0025 kPa
281.7 K | 0.0478 ± 0.003 kPa
284.8 K | 0.0612 ± 0.004 kPa
287.5 K | 0.0759 ± 0.0048 kPa
289.2 K | 0.0861 ± 0.0055 kPa
290.4 K | 0.095 ± 0.006 kPa
291.2 K | 0.0997 ± 0.0064 kPa
291.3 K | 0.1015 ± 0.0065 kPa
294.2 K | 0.1267 ± 0.008 kPa
296.2 K | 0.1436 ± 0.009 kPa
297.1 K | 0.1563 ± 0.0099 kPa
299.2 K | 0.1817 ± 0.011 kPa
300.1 K | 0.1942 ± 0.012 kPa and 0.2003 ± 0.013 kPa
301.1 K | 0.2085 ± 0.013 kPa
303.1 K | 0.2465 ± 0.016 kPa
305 K | 0.2782 ± 0.018 kPa
308 K | 0.3386 ± 0.021 kPa

COc1cccc(C)c1 [1-methoxy-3-methylbenzene]
Settings | vapor or sublimation pressure [kPa]
276.7 K | 0.0285 ± 0.0018
277.8 K | 0.0314 ± 0.002
280.6 K | 0.0395 ± 0.0025
284.7 K | 0.0541 ± 0.0035
289.4 K | 0.0804 ± 0.005
291.9 K | 0.094 ± 0.006
297.7 K | 0.1433 ± 0.009
301.1 K | 0.1806 ± 0.011
304.1 K | 0.2286 ± 0.014
305 K | 0.2433 ± 0.015
308 K | 0.3006 ± 0.019
310 K | 0.3363 ± 0.021
312.2 K | 0.4058 ± 0.026

COc1ccccc1C [1-methoxy-2-methylbenzene]
Settings | vapor or sublimation pressure
275.8 K | 0.035 ± 0.0023 kPa
277.7 K | 0.0405 ± 0.0025 kPa
278.7 K | 0.0432 ± 0.0028 kPa
280.6 K | 0.0504 ± 0.0033 kPa
282.6 K | 0.0599 ± 0.0038 kPa
285.7 K | 0.0735 ± 0.0047 kPa
286.8 K | 0.0821 ± 0.0053 kPa
290.2 K | 0.1038 ± 0.0065 kPa
293.4 K | 0.1308 ± 0.0083 kPa
296.2 K | 0.1606 ± 0.01 kPa
298.2 K | 0.1819 ± 0.011 kPa
300.2 K | 0.2111 ± 0.013 kPa and 0.2117 ± 0.013 kPa
303.3 K | 0.2601 ± 0.016 kPa
305.1 K | 0.2865 ± 0.018 kPa
308 K | 0.3491 ± 0.022 kPa
